Test results taken from the supplement of paper PMC8967900.

Columns and labels:
Experiment in all cases: selective drug sensitivity score (sDSS, relative to normal bone marrow) (sDSS (score)); higher = more potent and effective on the cell line relative to normal bone marrow cells
Settings in all cases: 72 h
[1] = tested on: 697
[2] = tested on: ALL-PO
[3] = tested on: CCRF-HSB2
[4] = tested on: COG-LL-319h
[5] = tested on: KASUMI-10
[6] = tested on: KASUMI-2
[7] = tested on: KASUMI-9
[8] = tested on: KOPN-8
[9] = tested on: LC4-1
[10] = tested on: MHH-CALL-4
[11] = tested on: MOLT-16
[12] = tested on: MOLT-4
[13] = tested on: NALL-1
[14] = tested on: NALM-6
[15] = tested on: PEER
[16] = tested on: RCH-ACV
[17] = tested on: SEM cells
[18] = tested on: SUP-B15
[19] = tested on: TANOUE
[20] = tested on: TMD5
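Also: ALL cell lines in 384-well plates, five doses spanning 10,000-fold, each plate scaled between vehicle and 100 µmol/L benzalkonium chloride controls, sDSS an adapted area-under-curve metric.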

SMILES	selective drug sensitivity score [1]	selective drug sensitivity score [2]	selective drug sensitivity score [3]	selective drug sensitivity score [4]	selective drug sensitivity score [5]	selective drug sensitivity score [6]	selective drug sensitivity score [7]	selective drug sensitivity score [8]	selective drug sensitivity score [9]	selective drug sensitivity score [10]	selective drug sensitivity score [11]	selective drug sensitivity score [12]	selective drug sensitivity score [13]	selective drug sensitivity score [14]	selective drug sensitivity score [15]	selective drug sensitivity score [16]	selective drug sensitivity score [17]	selective drug sensitivity score [18]	selective drug sensitivity score [19]	selective drug sensitivity score [20]
NC(=O)c1cccc(-c2cccc(OC(=O)NC3CCCCC3)c2)c1 [URB597] (top concentration 1000 nM)	-0.36	-0.46	-0.46	5.14	-0.46	-0.46	0.04	-0.36	0.44	-0.46	2.34	-0.46	-0.46	2.44	-0.46	-0.46	-0.46	0.94	2.84	-0.46
Nc1ncnc2c1c(COc1cccc(Cl)c1)nn2C1CCOCC1 (top concentration 10000 nM)	0.26	0.66	2.96	3.96	-0.64	2.46	1.06	5.66	0.26	-0.64	-0.64	0.16	-0.64	-0.54	-0.64	6.06	-0.64	0.16	1.16	-0.64
Nc1nc(N)c2nc(-c3cccc(O)c3)c(-c3cccc(O)c3)nc2n1 [TG100-115] (top concentration 10000 nM)	0.7	-0.2	3.9	0.6	0.1	-0.4	1.6	2.7	0.1	-0.4	1.1	-0.4	4.6	-0.4	-0.2	5.6	0.7	-0.3	-0.4	3
C[C@@H](Oc1cc(-c2cnn(C3CCNCC3)c2)cnc1N)c1c(Cl)ccc(F)c1Cl [Crizotinib] (top concentration 1000 nM)	-0.24	1.46	4.26	-0.54	-0.54	-0.54	-0.54	-0.54	-0.54	-0.54	-0.54	-0.54	-0.54	0.96	1.86	-0.54	-0.54	3.86	-0.54	1.66
CCc1cc2c(cc1N1CCC(N3CCOCC3)CC1)C(C)(C)c1[nH]c3cc(C#N)ccc3c1C2=O [Alectinib] (top concentration 1000 nM)	2.48	7.28	-0.22	2.48	1.68	1.08	0.88	1.38	3.18	-0.12	-0.22	-0.22	-0.22	1.28	0.78	4.98	0.58	-0.22	-0.22	-0.22
Cc1cccc(-c2nn3c(c2-c2ccnc4ccc(C(N)=O)cc24)CCC3)n1 [Galunisertib] (top concentration 1000 nM)	0	0	0	0	0	0	1.3	0	0	0	0	0	0	0	0	0	0.1	0	0	0
CN1CCC(COc2cnc(-c3cccc(Cn4nc(-c5cccc(C#N)c5)ccc4=O)c3)nc2)CC1 [Tepotinib] (top concentration 1000 nM)	-0.08	-0.08	0.02	2.22	-0.08	2.02	-0.08	-0.08	4.62	-0.08	-0.08	-0.08	-0.08	-0.08	0.02	0.42	0.22	-0.08	-0.08	-0.08
C/C(=C\c1csc(C)n1)[C@@H]1C[C@@H]2O[C@]2(C)CCC[C@H](C)[C@H](O)[C@@H](C)C(=O)C(C)(C)[C@@H](O)CC(=O)N1 [Ixabepilone] (top concentration 1000 nM)	4.68	2.28	3.18	3.68	1.58	1.48	2.58	6.98	5.08	0.58	4.68	3.98	1.68	4.48	3.28	6.78	3.58	5.08	-1.92	0.28
CNC(=O)c1ccc2cc([C@@]3(O)CCn4cncc43)ccc2c1 [Orteronel] (top concentration 10000 nM)	0	0	0	4.9	0	4.6	0	1	4.9	0	0	0	0	0	0	0	0	2.1	0	0
